Consider 14 compounds from patent publication US10526385B2, “YAP protein inhibiting polypeptide and application thereof” (BAO KANG BIOMEDICAL HEALTHCARE INC, priority 2013, dated 2020).

Read-outs that look alike come from different tables or passages of the source. Where a SMILES comes first, the peptide text is derived from it. Bridges are numbered along the chain shown (N, C = ends). [ ]: non-standard residue; d: D form. Phe(3-Cl) = N[C@@H](Cc1cccc(Cl)c1)C(=O)O; hCys = N[C@@H](CCS)C(=O)O; Nle = CCCC[C@H](N)C(=O)O

Assay [1] has as its system hepatoma cell line BEL7404. The assay is classed as cell-based. The conditions noted are these: for YAP inhibitory activity: summary of Table 8 in words. Here is the method: (§1) The hepatoma cell line BEL7404 (purchased from The Chinese Academy of Sciences cell bank) was a cell line with high expression of YAP protein; HCCLM3 (purchased from The Chinese Academy of Sciences cell bank) was a cell line with low expression of YAP protein. The hepatoma cell lines (BEL7404 or HCCLM3) were inoculated into a 96-well plate at the concentration of 2000 cells/well, and incubated overnight in RPMI1640 containing 1% bovine serum at 37° C. The hepatoma cell lines were treated with polypeptides having different concentrations at 37° C. for 72 h.
(§2) Moreover, IC50 values of the cells in 1.1 were determined using CCK-8 kit.
(§3) The polypeptide represented by SEQ ID NO.:1 was further modified. The IC50 values of the polypeptides at a concentration of 1% in cell cultivating for 72 h were measured.

Assay [2] relates to hepatoma cell line HCCLM3. The format is cell-based. Here is the method: as §1, §2, §3
[3] abbreviates: Table 8, at a concentration of 1% in cell cultivating for 72 h, unit inferred, read-out: IC50 BEL7404.
The mark [4] stands for this setting: Table 8, at a concentration of 1% in cell cultivating for 72 h, unit inferred, read-out: IC50 HCCLM3.

As for `CSCC[C@H](NC(=O)[C@H](CCCNC(=N)N)NC(=O)[C@@H](N)CCCNC(=N)N)C(=O)N[C@@H](CCCCN)C(=O)N[C@@H](Cc1c[nH]c2ccccc12)C(=O)N[C@@H](CCCCN)C(=O)N[C@@H](CCCCN)C(=O)N1CCC[C@H]1C(=O)N[C@@H](CCC(N)=O)C(=O)NCC(=O)N[C@@H](CCC(N)=O)C(=O)NCC(=O)N1CCC[C@H]1C(=O)N1CCC[C@H]1C(=O)N[C@@H](CO)C(=O)NCC(=O)N1CCC[C@H]1C(=O)NCC(=O)N[C@@H](CCC(N)=O)C(=O)N1CCC[C@H]1C(=O)N[C@@H](C)C(=O)N1CCC[C@H]1C(=O)N[C@@H](C)C(=O)O` [SEQ ID NO.: 16], the half-maximal inhibitory concentration (IC50) in assay [1] (72 h) is 242 ± 27.2 µM; in assay [2] (72 h), over 1000 µM.

Consider `CCCC[C@@H]1NC(=O)[C@@H](NC(=O)[C@H](CCCCN)NC(=O)[C@H](CCCCN)NC(=O)[C@H](CC(C)C)NC(=O)[C@H](Cc2cccc(Cl)c2)NC(=O)[C@@H]2CCCN2C(=O)[C@@H](N)C(C)C)CCSSC[C@@H](C(=O)N[C@@H](CCCNC(=N)N)C(=O)N[C@@H](CCCNC(=N)N)C(=O)N[C@@H](CCSC)C(=O)N[C@@H](CCCCN)C(=O)N[C@@H](Cc2c[nH]c3ccccc23)C(=O)N[C@@H](CCCCN)C(=O)N[C@@H](CCCCN)C(=O)O)NC(=O)[C@@H]2CCCN2C(=O)[C@@H]2CCCN2C(=O)[C@H](CCCCN)NC(=O)[C@H](Cc2ccccc2)NC(=O)[C@H](CO)NC(=O)[C@H](C)NC(=O)[C@@H]2CCCN2C1=O` [compound 33] (H-VP[Phe(3-Cl)]LKK[hCys][Nle]PASFKPPCRRMKWKK-OH; disulfide 7-16), for which the 50% inhibitory concentration (IC50) in assay [1] (setting [3]) was 10.8 ± 2.1 µM; in assay [2] (setting [4]), 81.1 ± 13.1 µM. Taken in the same sequence, the figures for `CCCC[C@@H]1NC(=O)[C@H](CCCCN)NC(=O)[C@H](CCCNC(=N)N)NC(=O)[C@H](CC(C)C)NC(=O)[C@@H](NC(=O)[C@H](Cc2cccc(Cl)c2)NC(=O)[C@@H]2CCCN2C(=O)[C@@H](N)C(C)C)CCSSC[C@@H](C(=O)N[C@@H](CCCCN)C(=O)N2CCC[C@H]2C(=O)N2CCC[C@H]2C(=O)N[C@@H](CCCNC(=N)N)C(=O)N[C@@H](CCCNC(=N)N)C(=O)N[C@@H](CCSC)C(=O)N[C@@H](CCCCN)C(=O)N[C@@H](Cc2c[nH]c3ccccc23)C(=O)N[C@@H](CCCCN)C(=O)N[C@@H](CCCCN)C(=O)O)NC(=O)[C@H](Cc2ccccc2)NC(=O)[C@H](CO)NC(=O)[C@H](CCC(=O)O)NC(=O)[C@@H]2CCCN2C1=O` [compound 22] (H-VP[Phe(3-Cl)][hCys]LRK[Nle]PESFCKPPRRMKWKK-OH; disulfide 4-13) were 67.9 ± 6.4 µM and 181 ± 21.7 µM. For `CCCC[C@@H]1NC(=O)[C@@H](NC(=O)[C@H](Cc2cccc(Cl)c2)NC(=O)[C@@H]2CCCN2C(=O)[C@@H](N)C(C)C)CCSSC[C@@H](C(=O)N[C@@H](CCCCN)C(=O)N2CCC[C@H]2C(=O)N2CCC[C@H]2C(=O)N[C@@H](CCCNC(=N)N)C(=O)N[C@@H](CCCNC(=N)N)C(=O)N[C@@H](CCSC)C(=O)N[C@@H](CCCCN)C(=O)N[C@@H](Cc2c[nH]c3ccccc23)C(=O)N[C@@H](CCCCN)C(=O)N[C@@H](CCCCN)C(=O)O)NC(=O)[C@H](Cc2ccccc2)NC(=O)[C@H](CO)NC(=O)[C@H](CC(=O)O)NC(=O)[C@@H]2CCCN2C(=O)[C@H](CCCC)NC(=O)[C@H](CCCCN)NC(=O)[C@H](CCCCN)NC1=O` [compound 28] (H-VP[Phe(3-Cl)][hCys][Nle]KK[Nle]PDSFCKPPRRMKWKK-OH; disulfide 4-13), the results for the 50% inhibitory concentration (IC50) in assay [1] (setting [3]) and in assay [2] (setting [4]) were 55.4 ± 6.3 µM and 198 ± 19.6 µM, respectively. Consider `CCCC[C@@H]1NC(=O)[C@H](CCCNC(=N)N)NC(=O)[C@H](CCCCN)NC(=O)[C@H](CC(C)C)NC(=O)[C@@H](NC(=O)[C@H](Cc2cccc(Cl)c2)NC(=O)[C@@H]2CCCN2C(=O)[C@@H](N)C(C)C)CCSSC[C@@H](C(=O)N[C@@H](CCCCN)C(=O)N2CCC[C@H]2C(=O)N2CCC[C@H]2C(=O)N[C@@H](CCCNC(=N)N)C(=O)N[C@@H](CCCNC(=N)N)C(=O)N[C@@H](CCSC)C(=O)N[C@@H](CCCCN)C(=O)N[C@@H](Cc2c[nH]c3ccccc23)C(=O)N[C@@H](CCCCN)C(=O)N[C@@H](CCCCN)C(=O)O)NC(=O)[C@H](Cc2ccccc2)NC(=O)[C@H](CO)NC(=O)[C@H](C)NC(=O)[C@@H]2CCCN2C1=O` [compound 24] (H-VP[Phe(3-Cl)][hCys]LKR[Nle]PASFCKPPRRMKWKK-OH; disulfide 4-13), for which the half-maximal inhibitory concentration (IC50) in assay [1] (setting [3]) was 25.7 ± 3 µM; in assay [2] (setting [4]), 67.3 ± 38.5 µM. Regarding `CCCC[C@@H]1NC(=O)[C@H](CCCCN)NC(=O)[C@H](CCCCN)NC(=O)[C@H](CC(C)C)NC(=O)[C@@H](NC(=O)[C@H](Cc2cccc(Cl)c2)NC(=O)[C@@H]2CCCN2C(=O)[C@@H](N)C(C)C)CCSSC[C@@H](C(=O)N[C@@H](CCCCN)C(=O)N2CCC[C@H]2C(=O)N2CCC[C@H]2C(=O)N[C@@H](CCCNC(=N)N)C(=O)N[C@@H](CCCNC(=N)N)C(=O)N[C@@H](CCSC)C(=O)N[C@@H](CCCCN)C(=O)N[C@@H](Cc2c[nH]c3ccccc23)C(=O)N[C@@H](CCCCN)C(=O)N[C@@H](CCCCN)C(=O)O)NC(=O)[C@H](Cc2ccccc2)NC(=O)[C@H](CO)NC(=O)[C@H](CC(=O)O)NC(=O)[C@@H]2CCCN2C1=O` [compound 27] (H-VP[Phe(3-Cl)][hCys]LKK[Nle]PDSFCKPPRRMKWKK-OH; disulfide 4-13), the values for the IC50 in assay [1] (setting [3]) and in assay [2] (setting [4]) were 60.2 ± 15.2 µM and under 1000 µM, respectively. Take `CCCC[C@@H]1NC(=O)[C@@H](NC(=O)[C@H](Cc2cccc(Cl)c2)NC(=O)[C@@H]2CCCN2C(=O)[C@H](C)N)CCSSC[C@@H](C(=O)N[C@@H](CCCCN)C(=O)N2CCC[C@H]2C(=O)N2CCC[C@H]2C(=O)N[C@@H](CCCNC(=N)N)C(=O)N[C@@H](CCCNC(=N)N)C(=O)N[C@@H](CCSC)C(=O)N[C@@H](CCCCN)C(=O)N[C@@H](Cc2c[nH]c3ccccc23)C(=O)N[C@@H](CCCCN)C(=O)N[C@@H](CCCCN)C(=O)O)NC(=O)[C@H](Cc2ccccc2)NC(=O)[C@H](CO)NC(=O)[C@H](CC(=O)O)NC(=O)[C@@H]2CCCN2C(=O)[C@H](CCCC)NC(=O)[C@H](CCCCN)NC(=O)[C@H](CCCCN)NC1=O` [compound 26] (H-AP[Phe(3-Cl)][hCys][Nle]KK[Nle]PDSFCKPPRRMKWKK-OH; disulfide 4-13): the IC50 in assay [1] (setting [3]) is 62.7 ± 5.9 µM; in assay [2] (setting [4]), over 1000 µM.

For the compound “VP-Hcy-(3-Cl)F-LKK-Nle-PASCFKPP RRMKWKK [SEQ ID NO.: 31]”, in assay [1], the YAP inhibitory activity entry was “best inhibitory activity”.

On to `CCCC[C@@H]1NC(=O)[C@H](CCCCN)NC(=O)[C@H](CCCCN)NC(=O)[C@H](CC(C)C)NC(=O)[C@H](Cc2cccc(Cl)c2)NC(=O)[C@@H](NC(=O)[C@@H]2CCCN2C(=O)[C@@H](N)C(C)C)CCSSC[C@@H](C(=O)N[C@@H](Cc2ccccc2)C(=O)N[C@@H](CCCCN)C(=O)N2CCC[C@H]2C(=O)N2CCC[C@H]2C(=O)N[C@@H](CCCNC(=N)N)C(=O)N[C@@H](CCCNC(=N)N)C(=O)N[C@@H](CCSC)C(=O)N[C@@H](CCCCN)C(=O)N[C@@H](Cc2c[nH]c3ccccc23)C(=O)N[C@@H](CCCCN)C(=O)N[C@@H](CCCCN)C(=O)O)NC(=O)[C@H](CO)NC(=O)[C@H](C)NC(=O)[C@@H]2CCCN2C1=O` [compound 31] (H-VP[hCys][Phe(3-Cl)]LKK[Nle]PASCFKPPRRMKWKK-OH; disulfide 3-12), for which the 50% inhibitory concentration (IC50) was determined as 16.2 ± 1.9 µM in assay [1] (setting [3]) and 107 ± 23.2 µM in assay [2] (setting [4]). Consider `CCCC[C@@H]1NC(=O)[C@H](CCCCN)NC(=O)[C@H](CCCCN)NC(=O)[C@H](CC(C)C)NC(=O)[C@@H](NC(=O)[C@H](Cc2cccc(Cl)c2)NC(=O)[C@@H]2CCCN2C(=O)[C@@H](N)C(C)C)CCSSC[C@@H](C(=O)N[C@@H](CCCCN)C(=O)N2CCC[C@H]2C(=O)N2CCC[C@H]2C(=O)N[C@@H](CCCNC(=N)N)C(=O)N[C@@H](CCCNC(=N)N)C(=O)N[C@@H](CCSC)C(=O)N[C@@H](CCCCN)C(=O)N[C@@H](Cc2c[nH]c3ccccc23)C(=O)N[C@@H](CCCCN)C(=O)N[C@@H](CCCCN)C(=O)O)NC(=O)[C@H](Cc2ccccc2)NC(=O)[C@H](CO)NC(=O)[C@H](C)NC(=O)[C@@H]2CCCN2C1=O` [compound 23] (H-VP[Phe(3-Cl)][hCys]LKK[Nle]PASFCKPPRRMKWKK-OH; disulfide 4-13), for which the IC50 in assay [1] (setting [3]) was 37.2 ± 1 µM; in assay [2] (setting [4]), 129 ± 26.4 µM. The like results for `CCCC[C@@H]1NC(=O)[C@H](CCCCN)NC(=O)[C@H](CCCCN)NC(=O)[C@H](CC(C)C)NC(=O)[C@@H](NC(=O)[C@H](Cc2cccc(Cl)c2)NC(=O)[C@@H]2CCCN2C(=O)[C@H](C)N)CCSSC[C@@H](C(=O)N[C@@H](CCCCN)C(=O)N2CCC[C@H]2C(=O)N2CCC[C@H]2C(=O)N[C@@H](CCCNC(=N)N)C(=O)N[C@@H](CCCNC(=N)N)C(=O)N[C@@H](CCSC)C(=O)N[C@@H](CCCCN)C(=O)N[C@@H](Cc2c[nH]c3ccccc23)C(=O)N[C@@H](CCCCN)C(=O)N[C@@H](CCCCN)C(=O)O)NC(=O)[C@H](Cc2ccccc2)NC(=O)[C@H](CO)NC(=O)[C@H](CC(=O)O)NC(=O)[C@@H]2CCCN2C1=O` [compound 25] (H-AP[Phe(3-Cl)][hCys]LKK[Nle]PDSFCKPPRRMKWKK-OH; disulfide 4-13) were, in that order, 119 ± 7.1 µM and over 1000 µM.

For the compound “VP(3-Cl)F-LKK-Hcy-Nle-PASFKPPC RRMKWKK [SEQ ID NO.: 33]”, in assay [1], the YAP inhibitory activity entry is “best inhibitory activity”.

On to “VP(3-Cl)F-Hcy-LKK-Nle-PASFCKPP RRMKWKK [SEQ ID NO.: 23]”, for which the YAP inhibitory activity entry in assay [1] was “best inhibitory activity”. For the compound “VP(3-Cl)F-Hcy-LRK-Nle-PASFCKPP RRMKWKK [SEQ ID NO.: 21]”, the YAP inhibitory activity result in assay [1] is on record as “best inhibitory activity”.

The term IC50 denotes the concentration that gives 50% inhibition.
